pIC50: −log10 of the molar value.

Our source for the IC50 values is US20260297070A1, “CYCLIC [COMPOUND LEFT OUT] WRN INHIBITORS” (Nimbus Wadjet, Inc., priority 2023, published 2026).

The target in the test is T1, human Werner helicase (WRN-BV08, Uniprot Q14191, amino acids 517-1235 with L1074F point mutation) (Homo sapiens, UniProt Q14191, L1074F).
T1 construct: Uniprot Q14191, amino acids 517-1235 with L1074F point mutation; TEV-cleavable 8×His (C, cleaved yes); made in house; host or cells: Sf9 insect cells (baculovirus)
Briefly: WRN (BV08) ADP-Glo Assay. Type of test: biochemical. The conditions noted are these: 0.15 nM WRN, 5 μM ATP, 0.1 nM DNA duplex, 15 min preincubation, 60 min at 25° C., pH 7.5, 1% DMSO; read-out: ADP-Glo_hWRN_IC50. The essentials:
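Percent inhibition was normalised to DMSO (max) and 20 μM NSC-617145 (min) controls from ADP-Glo luminescence, and IC50 values came from a four-parameter fit. The reaction ran 60 min at 25 °C with 0.15 nM WRN, 5 μM ATP and 0.1 nM duplex DNA.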

T1 sequence (Q14191 with tags, fused parts or gaps L1074F limits assumed): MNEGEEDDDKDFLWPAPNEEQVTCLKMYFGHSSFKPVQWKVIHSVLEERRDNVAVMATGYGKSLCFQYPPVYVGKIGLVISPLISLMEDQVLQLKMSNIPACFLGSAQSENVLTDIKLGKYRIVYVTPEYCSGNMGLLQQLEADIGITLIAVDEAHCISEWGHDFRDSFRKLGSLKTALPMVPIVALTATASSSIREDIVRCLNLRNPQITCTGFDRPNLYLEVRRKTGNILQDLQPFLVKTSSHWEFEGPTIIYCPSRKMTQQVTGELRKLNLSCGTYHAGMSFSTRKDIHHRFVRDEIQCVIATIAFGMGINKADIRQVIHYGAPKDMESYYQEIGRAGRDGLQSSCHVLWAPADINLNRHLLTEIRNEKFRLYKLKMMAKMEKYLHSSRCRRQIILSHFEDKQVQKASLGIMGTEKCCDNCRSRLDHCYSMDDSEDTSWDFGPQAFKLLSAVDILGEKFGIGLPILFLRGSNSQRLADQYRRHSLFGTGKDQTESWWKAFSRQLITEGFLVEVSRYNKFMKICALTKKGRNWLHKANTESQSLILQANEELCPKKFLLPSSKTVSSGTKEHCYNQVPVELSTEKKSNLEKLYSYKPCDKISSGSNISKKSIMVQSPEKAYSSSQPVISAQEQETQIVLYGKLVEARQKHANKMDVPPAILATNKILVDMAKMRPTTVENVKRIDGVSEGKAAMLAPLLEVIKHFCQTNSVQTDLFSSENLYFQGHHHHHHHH

Consider `COc1cc(CN(C(=O)C(OCc2cnn(C)c2)c2ccc(-c3ccc(F)c(F)c3)cc2F)[C@@H]2C=CS(=O)(=O)C2)ccn1` (single isomer, unassigned) [I-743, (2R*)-N-[(3R)-1,1-dioxo-2,3-dihydro-1lambda6-thiophen-3-yl]-N-[(2-methoxypyridin-4-yl)methyl]-2-[(1-methyl-1H-pyrazol-4-yl)methoxy]-2-{3,3′,4′-trifluoro-[1,1′-biphenyl]-4-yl}acetamide], for which the pIC50 is under 4.30.

As for `COc1cc(CN(C(=O)C(OCCC#N)c2ccc(-c3ccc(F)c(F)c3)cc2F)[C@@H]2C=CS(=O)(=O)C2)ccn1` (stereo partly drawn) [I-744, 2-(2-cyanoethoxy)-N-[(3R)-1,1-dioxo-2,3-dihydro-1lambda6-thiophen-3-yl]-N-[(2-methoxypyridin-4-yl)methyl]-2-{3,3′,4′-trifluoro-[1,1′-biphenyl]-4-yl}acetamide], the pIC50 is 5.30 to 6.30.

In the case of `COc1cc(CN(C(=O)Cc2ncc(-c3ccc(F)cc3)cc2F)C2C=CS(=O)(=O)C2)ccn1` (centres unmarked) [I-172, N-(1,1-dioxo-2,3-dihydro-1lambda6-thiophen-3-yl)-2-[3-fluoro-5-(4-fluorophenyl)pyridin-2-yl]-N-[(2-methoxypyridin-4-yl)methyl]acetamide], the pIC50 is 5.30 to 6.30.

Take `CC(C)(O)c1cc(CN(C(=O)Cn2cc(-c3ccccc3F)cn2)C2C=CS(=O)(=O)C2)ccn1` (centres unmarked) [I-108, N-(1,1-dioxo-2,3-dihydro-1lambda6-thiophen-3-yl)-2-[4-(2-fluorophenyl)-1H-pyrazol-1-yl]-N-{[2-(2-hydroxypropan-2-yl)pyridin-4-yl]methyl}acetamide]: the pIC50 is 5.30 to 6.30.

With `Cc1cccc(-c2ccc(CC(=O)N(Cc3ccncc3)C3C=CS(=O)(=O)C3)cc2)c1` (centres unmarked) [I-288, N-(1,1-dioxo-2,3-dihydro-1lambda6-thiophen-3-yl)-2-{3′-methyl-[1,1′-biphenyl]-4-yl}-N-[(pyridin-4-yl)methyl]acetamide], the pIC50 is 4.30 to 5.00.

On to `CN(C)C(=O)C(C(=O)N(Cc1nc(C2CC2)cs1)C1C=CS(=O)(=O)C1)c1ccc(-c2ccc(F)cc2)cc1F` (centres unmarked) [I-23, N′-[(4-cyclopropyl-1,3-thiazol-2-yl)methyl]-2-{3,4′-difluoro-[1,1′-biphenyl]-4-yl}-N′-(1,1-dioxo-2,3-dihydro-1lambda6-thiophen-3-yl)-N,N-dimethylpropanediamide], for which the pIC50 is over 6.30.

`Cc1scnc1-c1ccc(CC(=O)N(Cc2ccncc2)C2C=CS(=O)(=O)C2)c(F)c1` (centres unmarked) [I-320, N-(1,1-dioxo-2,3-dihydro-1lambda6-thiophen-3-yl)-2-[2-fluoro-4-(5-methyl-1,3-thiazol-4-yl)phenyl]-N-[(pyridin-4-yl)methyl]acetamide]: the pIC50 is 4.30 to 5.00.

In the case of `COc1cc(CN(C(=O)C(c2ccc(-c3ccc(F)c(F)c3)cc2F)n2cc(OC(F)F)cn2)[C@@H]2C=CS(=O)(=O)C2)ccn1` (single isomer, unassigned) [I-696, (2R*)-2-[4-(difluoromethoxy)-1H-pyrazol-1-yl]-N-[(3R)-1,1-dioxo-2,3-dihydro-1lambda6-thiophen-3-yl]-N-[(2-methoxypyridin-4-yl)methyl]-2-{3,3′,4′-trifluoro-[1,1′-biphenyl]-4-yl}acetamide], the pIC50 is under 4.30.

With `COc1cc(CN(C(=O)C(c2ccc(-c3ccc(F)c(F)c3)cc2F)n2nccc2C)[C@@H]2C=CS(=O)(=O)C2)ccn1` (single isomer, unassigned) [I-749, (2R*)-N-[(3R)-1,1-dioxo-2,3-dihydro-1lambda6-thiophen-3-yl]-N-[(2-methoxypyridin-4-yl)methyl]-2-(5-methyl-1H-pyrazol-1-yl)-2-{3,3′,4′-trifluoro-[1,1′-biphenyl]-4-yl}acetamide], the pIC50 was 5.30 to 6.30.

For `O=C(Cc1ccc(N2CCOCC2)cc1)N(Cc1ccncc1)C1C=CS(=O)(=O)C1` (centres unmarked) [I-564, N-(1,1-dioxo-2,3-dihydro-1lambda6-thiophen-3-yl)-2-[4-(morpholin-4-yl)phenyl]-N-[(pyridin-4-yl)methyl]acetamide], the pIC50 is under 4.30.

In the case of `O=C(C1CCC2(CCC2)CO1)N(Cc1ccncc1)C1C=CS(=O)(=O)C1` (centres unmarked) [I-654, N-(1,1-dioxo-2,3-dihydro-1lambda6-thiophen-3-yl)-N-[(pyridin-4-yl)methyl]-6-oxaspiro[3.5]nonane-7-carboxamide], the pIC50 was under 4.30.

Regarding `COc1cc(CN(C(=O)C(OCc2cnn(C)c2)c2ccc(-c3ccc(F)c(F)c3)cc2F)[C@@H]2C=CS(=O)(=O)C2)ccn1` (stereo partly drawn) [I-745, N-[(3R)-1,1-dioxo-2,3-dihydro-1lambda6-thiophen-3-yl]-N-[(2-methoxypyridin-4-yl)methyl]-2-[(1-methyl-1H-pyrazol-4-yl)methoxy]-2-{3,3′,4′-trifluoro-[1,1′-biphenyl]-4-yl}acetamide], the pIC50 was 5.30 to 6.30.

With `O=C(Cc1ccc(OC2CCC2)cc1)N(Cc1ccncc1)C1C=CS(=O)(=O)C1` (centres unmarked) [I-463, 2-(4-cyclobutoxyphenyl)-N-(1,1-dioxo-2,3-dihydro-1lambda6-thiophen-3-yl)-N-[(pyridin-4-yl)methyl]acetamide], the pIC50 is under 4.30.

Regarding `O=C(Cc1ccc(C2CC2(F)F)cc1)N(Cc1ccncc1)C1C=CS(=O)(=O)C1` (centres unmarked) [I-273, 2-[4-(2,2-difluorocyclopropyl)phenyl]-N-(1,1-dioxo-2,3-dihydro-1lambda6-thiophen-3-yl)-N-[(pyridin-4-yl)methyl]acetamide], the pIC50 is 5.00 to 5.30.

For `O=C(Cn1c(=O)n(C2=CCCCC2)c2ccccc21)N(Cc1ccncc1)C1C=CS(=O)(=O)C1` (centres unmarked) [I-680, 2-[3-(cyclohex-1-en-1-yl)-2-oxo-2,3-dihydro-1H-1,3-benzodiazol-1-yl]-N-(1,1-dioxo-2,3-dihydro-1lambda6-thiophen-3-yl)-N-[(pyridin-4-yl)methyl]acetamide], the pIC50 was under 4.30.

Regarding `CC(C)c1csc(CN(C(=O)Cc2ccc(S(F)(F)(F)(F)F)cc2)C2C=CS(=O)(=O)C2)n1` (centres unmarked) [I-659, N-(1,1-dioxo-2,3-dihydro-1lambda6-thiophen-3-yl)-2-[4-(pentafluoro-lambda6-sulfanyl)phenyl]-N-{[4-(propan-2-yl)-1,3-thiazol-2-yl]methyl}acetamide], the pIC50 was over 6.30.

Take `CC(C(=O)N(Cc1ccncc1)C1C=CS(=O)(=O)C1)c1ccc(-n2cccc2)cc1` (centres unmarked) [I-265, N-(1,1-dioxo-2,3-dihydro-1lambda6-thiophen-3-yl)-N-[(pyridin-4-yl)methyl]-2-[4-(1H-pyrrol-1-yl)phenyl]propanamide]: the pIC50 was 5.00 to 5.30.

Regarding `CCOc1cc(CN(C(=O)Cc2ccc(-c3ccc(F)cc3)cc2F)C2C=CS(=O)(=O)C2)ccn1` (centres unmarked) [I-84, 2-{3,4′-difluoro-[1,1′-biphenyl]-4-yl}-N-(1,1-dioxo-2,3-dihydro-1lambda6-thiophen-3-yl)-N-[(2-ethoxypyridin-4-yl)methyl]acetamide], the pIC50 was 5.30 to 6.30.

As for `CC(C(=O)N(Cc1ccnc(C(C)(C)O)c1)C1C=CS(=O)(=O)C1)n1cc(-c2cc(F)c(F)c(F)c2)cn1` (single isomer, unassigned) [I-777, (2R*)-N-[(3R**)-1,1-dioxo-2,3-dihydro-1lambda6-thiophen-3-yl]-N-{[2-(2-hydroxypropan-2-yl)pyridin-4-yl]methyl}-2-[4-(3,4,5-trifluorophenyl)-1H-pyrazol-1-yl]propanamide], the pIC50 is over 6.30.

As to `O=C(Cc1ccc(-c2ccc(F)cc2)c(C(F)F)c1)N(Cc1ccncc1)C1C=CS(=O)(=O)C1` (centres unmarked) [I-401, 2-[2-(difluoromethyl)-4′-fluoro-[1,1′-biphenyl]-4-yl]-N-(1,1-dioxo-2,3-dihydro-1lambda6-thiophen-3-yl)-N-[(pyridin-4-yl)methyl]acetamide], the pIC50 was under 4.30.

Turning to `CN(C)C(=O)C(C(=O)N(Cc1ccnc(C(C)(C)O)c1)C1C=CS(=O)(=O)C1)c1ccc(-c2ccc(F)cc2)cc1F` (single isomer, unassigned) [I-12, (2R**)-2-{3,4′-difluoro-[1,1′-biphenyl]-4-yl}-N-[(3R*)-1,1-dioxo-2,3-dihydro-1lambda6-thiophen-3-yl]-N-{[2-(2-hydroxypropan-2-yl)pyridin-4-yl]methyl}-N′,N′-dimethylpropanediamide], the pIC50 was over 6.30.

`CNC(=O)C(C(=O)N(Cc1ccnc(C(C)(C)O)c1)C1C=CS(=O)(=O)C1)c1ccc(-c2ccc(F)c(F)c2)cc1F` (single isomer, unassigned) [I-690, (2R**)-N′-[(3R*)-1,1-dioxo-2,3-dihydro-1lambda6-thiophen-3-yl]-N′-{[2-(2-hydroxypropan-2-yl)pyridin-4-yl]methyl}-N-methyl-2-{3,3′,4′-trifluoro-[1,1′-biphenyl]-4-yl}propanediamide]: the pIC50 is 5.30 to 6.30.

In the case of `CC(C)(O)c1cc(CN(C(=O)Cn2cc(-c3ccc(F)c(F)c3F)cn2)C2C=CS(=O)(=O)C2)ccn1` (single isomer, unassigned) [I-704], the pIC50 was over 6.30.

With `O=C(CCc1nc(-c2ccccc2F)no1)N(Cc1ccncc1)C1C=CS(=O)(=O)C1` (centres unmarked) [I-496, N-(1,1-dioxo-2,3-dihydro-1lambda6-thiophen-3-yl)-3-[3-(2-fluorophenyl)-1,2,4-oxadiazol-5-yl]-N-[(pyridin-4-yl)methyl]propanamide], the pIC50 is under 4.30.

For `O=C(Cc1ccc(-n2ccc3ccccc32)cc1)N(Cc1ccncc1)C1C=CS(=O)(=O)C1` (centres unmarked) [I-305, N-(1,1-dioxo-2,3-dihydro-1lambda6-thiophen-3-yl)-2-[4-(1H-indol-1-yl)phenyl]-N-[(pyridin-4-yl)methyl]acetamide], the pIC50 is 4.30 to 5.00.

Turning to `CC(C)(O)c1cc(CN(C(=O)Cc2ccc(S(F)(F)(F)(F)F)cc2)[C@H]2C=CS(=O)(=O)C2)ccn1` [I-230, N-[(3S)-1,1-dioxo-2,3-dihydro-1lambda6-thiophen-3-yl]-N-{[2-(2-hydroxypropan-2-yl)pyridin-4-yl]methyl}-2-[4-(pentafluoro-lambda6-sulfanyl)phenyl]acetamide], the pIC50 is 5.30 to 6.30.
